{"source": "paper PMC12645191", "about": "“Dicarboxylate and dicarboxylic acid appended supramolecular self-associating amphiphiles as antimicrobial agents against high priority bacterial pathogens” (Organic & Biomolecular Chemistry, 2025)", "key": {"S. aureus ATCC 9144": {"tested_on": "S. aureus ATCC 9144", "assay": "inhibition of bacterial growth, OD600 after 20 h", "assay_type": "cell-based, Staphylococcus aureus", "details": "SSA 5.0 mM, 2.5% ethanol, negative = enhanced growth", "protocol": "(§1) With the self-associative properties of 1–10 established, the antimicrobial activity of these SSAs were determined against a panel of clinically relevant, high-priority pathogens including: P. aeruginosa PAO1; Klebsiella pneumonia (K. pneumoniae) M6; E. coli NCTC 12923; Acinetobacter baumannii (A. baumannii) ATCC 17978; S. aureus ATCC 9144; Enterococcus faecalis (E. faecalis) NCTC 775; and Enterococcus faecium (E. faecium) NCTC 12204. […] However, it should be noted that the SSA stock solution was prepared in a H2O 5% EtOH solution, to ensure that the SSA aggregates formed were in line with those characterised within the scope of the SSA self-association studies.\n(§2) Section 3: Biological methods\n(§3) These methods were taken directly from UK Health and Security Office (UKHSA) standard […]\n(§4) Preparation of Luria Broth media (LB): Yeast extract (5.0 g), tryptone (10.0 g) and sodium chloride (10.0 g) were dissolved in dH₂O (1.0 L) then divided into bottles and autoclaved.\n(§5) Preparation of Luria Broth (LB) agar plates: Agar (6.0 g) was added to LB (400 mL) and autoclaved. Once cool, the LB agar was poured into sterile petri dishes under sterile conditions and allowed to set. LB plates were stored at 4 °C until use.\n(§6) Preparation of bacterial plates: Sterile LB agar plates were streaked using streaked using the desired bacteria i) Pseudomonas aeruginosa (P.aeruginosa) PAO1, ii) Klebsiella pneumoniae (K. pneumoniae) M6 iii) E. coli NCTC 12923 and iv) Acinetobacter baumannii (A. baumannii) ATCC 17978 and Gram-positive i) Staphylococcus aureus (S. aureus) ATCC 9144 ii) Enterococcus faecalis (E. faecalis) NCTC 775 and iii) Enterococcus faecium (E. faecium ) NCTC 12204, then incubated at 37 °C overnight.\n(§7) Preparation of Inoculum: An initial culture was made up by inoculating LB media (5 mL) with a single colony of bacteria under sterile conditions and incubated at 37 °C with shaking overnight. The following day, overnight bacterial cultures were subcultured into fresh LB medium to a starting OD600 of 0.01.\n(§8) Preparation of 96 well microplate for MIC50: The 1:100 cell suspension (150 µL) was dispensed into individual wells under sterile conditions. SSAs (30 µL) were added to the wells to equal a total volume of 180 µL in the wells. Six repeats of each concentration for each SSA were created each plate. The plates were sealed using parafilm, then incubated at 37 °C in a microplate reader for 20 hours. OD600 endpoint data was used to generate growth curves. […]"}, "E. faecalis NCTC 775": {"tested_on": "E. faecalis NCTC 775", "assay": "inhibition of bacterial growth, OD600 after 20 h", "assay_type": "cell-based, Enterococcus faecalis", "details": "SSA 5.0 mM, 2.5% ethanol, negative = enhanced growth", "protocol": "as §1, §2, §3, §4, §5, §6, §7, §8"}, "[1]": {"assay": "dynamic light scattering (DLS) of SSA aggregates", "assay_type": "physicochemical", "details": "5.6 mM, H2O 5.0% EtOH, 298 K", "protocol": "Dynamic light scattering (DLS) and zeta potential measurements in H2O 5.0% EtOH were used to determine the hydrodynamic diameter (dH) and stability of the higher-order SSA aggregates detected by (Q) ^1H NMR spectroscopy at 5.6 mM, Table 1. […] However, we are unable to confidently report a dH for 1 due to the instability of this system, which is supported by a zeta potential value of −26 mV, obtained for this SSA under the same experimental conditions. […] Due to the instability of these systems in the absence of solvent, attempts to further characterise these systems through SEM or AFM are not possible.[48]"}, "E. coli NCTC 12923": {"tested_on": "E. coli NCTC 12923", "assay": "inhibition of bacterial growth, OD600 after 20 h", "assay_type": "cell-based, Escherichia coli", "details": "SSA 5.0 mM, 2.5% ethanol, negative = enhanced growth", "protocol": "as §1, §2, §3, §4, §5, §6, §7, §8"}, "A. baumannii ATCC 17978": {"tested_on": "A. baumannii ATCC 17978", "assay": "inhibition of bacterial growth, OD600 after 20 h", "assay_type": "cell-based, Acinetobacter baumannii", "details": "SSA 5.0 mM, 2.5% ethanol, negative = enhanced growth", "protocol": "as §1, §2, §3, §4, §5, §6, §7, §8"}, "K. pneumoniae M6": {"tested_on": "K. pneumoniae M6", "assay": "inhibition of bacterial growth, OD600 after 20 h", "assay_type": "cell-based, Klebsiella pneumoniae", "details": "SSA 5.0 mM, 2.5% ethanol, negative = enhanced growth", "protocol": "as §1, §2, §3, §4, §5, §6, §7, §8"}, "E. faecium NCTC 12204": {"tested_on": "E. faecium NCTC 12204", "assay": "inhibition of bacterial growth, OD600 after 20 h", "assay_type": "cell-based, Enterococcus faecium", "details": "SSA 5.0 mM, 2.5% ethanol, negative = enhanced growth", "protocol": "as §1, §2, §3, §4, §5, §6, §7, §8"}, "P. aeruginosa PAO1": {"tested_on": "P. aeruginosa PAO1", "assay": "inhibition of bacterial growth, OD600 after 20 h", "assay_type": "cell-based, Pseudomonas aeruginosa", "details": "SSA 5.0 mM, 2.5% ethanol, negative = enhanced growth", "protocol": "as §1, §2, §3, §4, §5, §6, §7, §8"}, "[2]": {"assay": "quantitative (Q) 1H NMR spectroscopy, proportion of SSA becoming NMR silent (higher-order aggregates)", "assay_type": "physicochemical", "protocol": "To confirm the presence of higher order self-associative structures quantitative (Q) ^1H NMR spectroscopy studies were undertaken at 5.6 mM in D2O 5% EtOH. Here the ^1H NMR resonances attributed to the EtOH are used as an internal standard.\nTable S1 – Overview of results of the quantitative (Q) 1H NMR studies for 1, 3, 5, 7 and 9\n5.0 % EtOH . Values given in % represent the observed proportion of the SSA that has become\nTable S2 – Overview of results of the quantitative (Q) 1H NMR studies for 2, 4, 6, 8 and 10\n5.0 % EtOH. Values given in % represent the observed proportion of anion and cation that has"}, "[3]": {"assay": "tensiometry: critical aggregate concentration (CAC) and surface tension", "assay_type": "physicochemical", "details": "for Surface tension at CAC: H2O/5.0 % EtOH", "protocol": "As the (Q) ^1H NMR spectroscopy experiments conducted at 5.6 mM in a D2O 5.0% EtOH solution confirmed the presence of higher-order self-associated structures with solid-like properties, concentration dependent surface tension measurements, obtained through tensiometry, were used to calculate critical aggregate concentration (CAC). Here the CAC is defined as the point at which an increase in SSA concentration no longer decreases surface tension but instead results in the formation of higher-order self-associated structures."}, "[4]": {"assay": "kinetic solubility determination in PBS pH 7.4", "details": "PBS, pH 7.4, aqueous buffer, kinetic from dmso stock, Solubility in PBS pH 7.4, kinetic; upper limit set at 300 µM"}}, "note": "Several values for one entry are separate records, joined by “and”; a condition that tells them apart may be missing. Equal entries are not always repeated.", "data": [{"smiles": "COc1ccc(NC(=O)N[C@@H](CCC(=O)O)C(=O)O)cc1", "note": "[SSA 5]", "values": [{"measurement": "Percentage inhibition of bacterial growth, ATCC 9144 (S. aureus)", "setting": "S. aureus ATCC 9144; listed as 5", "value": "12.67% and 13%"}, {"measurement": "inhibition at 5000 µM", "setting": "E. faecalis NCTC 775; Enterococcus faecalis, NCTC775, 20 h, read-out: Percentage inhibition of bacterial growth, NCTC 775 (E. faecalis)", "value": 13, "unit": "%"}, {"measurement": "Percentage inhibition of bacterial growth, NCTC 775 (E. faecalis)", "setting": "E. faecalis NCTC 775; listed as 5", "value": 13, "unit": "%"}, {"measurement": "DLS Peak 2 maxima", "setting": "[1]; listed as 5", "value": 1328, "unit": "nm"}, {"measurement": "Polydispersity index (%)", "setting": "[1]; listed as 5", "value": "22.7 (± 1.5) %"}, {"measurement": "dH (DLS intensity distribution peak 1 maxima)", "setting": "[1]; listed as 5", "value": 153, "unit": "nm"}, {"measurement": "Percentage inhibition of bacterial growth, NCTC 12923 (E. coli)", "setting": "E. coli NCTC 12923; listed as 5", "value": "70.96% and 71%"}, {"measurement": "Percentage inhibition of bacterial growth, ATCC 17978 (A. baumannii)", "setting": "A. baumannii ATCC 17978; listed as 5", "value": "18.61% and 19%"}, {"measurement": "inhibition at 5000 µM", "setting": "K. pneumoniae M6; Klebsiella pneumoniae, M6, 20 h, read-out: Percentage inhibition of bacterial growth, M6 (K. pneumoniae)", "value": 12.8, "unit": "%"}, {"measurement": "Percentage inhibition of bacterial growth, M6 (K. pneumoniae)", "setting": "K. pneumoniae M6; listed as 5", "value": 13, "unit": "%"}, {"measurement": "inhibition at 5000 µM", "setting": "E. faecium NCTC 12204; Enterococcus faecium, NCTC12204, 20 h, read-out: Percentage inhibition of bacterial growth, NCTC 12204 (E. faecium)", "value": 5.8, "unit": "%"}, {"measurement": "Percentage inhibition of bacterial growth, NCTC 12204 (E. faecium)", "setting": "E. faecium NCTC 12204; listed as 5", "value": 6, "unit": "%"}, {"measurement": "Percentage inhibition of bacterial growth, PAO1 (P. aeruginosa)", "setting": "P. aeruginosa PAO1; listed as 5", "value": 0, "unit": "%"}, {"measurement": "(Q) 1H NMR spectroscopy, proportion NMR silent, acid or anion", "setting": "[2]; 5.6 mM, D2O 5.0% EtOH, 298 K, listed as 5", "value": 56, "unit": "%"}, {"measurement": "(Q) 1H NMR, proportion NMR silent, SSA acid or anion", "setting": "[2]; ~112 mM, DMSO-d6 1.0% DCM", "value": 0, "unit": "%"}, {"measurement": "ST at CAC", "setting": "[3]; H2O 5.0% EtOH, 298 K", "value": 58, "unit": "mN m^−1"}, {"measurement": "CAC (footnote in place of a value)", "setting": "[3]; H2O 5.0% EtOH, 298 K, listed as 5", "value": "^b (CAC above the limit of solubility)"}, {"measurement": "Surface tension at CAC", "setting": "[3]; listed as 5", "value": 58.22, "unit": "mN/m"}]}, {"smiles": "O=C(O)Cc1ccccc1Nc1c(Cl)cccc1Cl", "note": "[Diclofenac, reference compound]", "values": [{"measurement": "solubility", "setting": "[4]", "value": 281, "unit": "µM"}]}, {"smiles": "COc1ccc(NC(=O)N[C@@H](CC(=O)O)C(=O)O)cc1", "note": "[SSA 8]", "values": [{"measurement": "Percentage inhibition of bacterial growth, ATCC 9144 (S. aureus)", "setting": "S. aureus ATCC 9144; listed as 8", "value": "96.79% and 97%"}, {"measurement": "Percentage inhibition of bacterial growth, NCTC 775 (E. faecalis)", "setting": "E. faecalis NCTC 775; listed as 8", "value": "38.33% and 38%"}, {"measurement": "DLS Peak 2 maxima", "setting": "[1]; listed as 8", "value": 3417, "unit": "nm"}, {"measurement": "Polydispersity index (%)", "setting": "[1]; listed as 8", "value": "25.6 (± 1.0) %"}, {"measurement": "dH (DLS intensity distribution peak 1 maxima)", "setting": "[1]; listed as 8", "value": 313, "unit": "nm"}, {"measurement": "Percentage inhibition of bacterial growth, NCTC 12923 (E. coli)", "setting": "E. coli NCTC 12923; listed as 8", "value": "39.33% and 39%"}, {"measurement": "Percentage inhibition of bacterial growth, ATCC 17978 (A. baumannii)", "setting": "A. baumannii ATCC 17978; listed as 8", "value": "-20.26% and −20%"}, {"measurement": "Percentage inhibition of bacterial growth, M6 (K. pneumoniae)", "setting": "K. pneumoniae M6; listed as 8", "value": "9.69% and 10%"}, {"measurement": "Percentage inhibition of bacterial growth, NCTC 12204 (E. faecium)", "setting": "E. faecium NCTC 12204; listed as 8", "value": "-1.33% and −1%"}, {"measurement": "Percentage inhibition of bacterial growth, PAO1 (P. aeruginosa)", "setting": "P. aeruginosa PAO1; listed as 8", "value": "37.24% and 37%"}, {"measurement": "(Q) 1H NMR spectroscopy, proportion NMR silent, acid or anion", "setting": "[2]; 5.6 mM, D2O 5.0% EtOH, 298 K", "value": 47, "unit": "%"}, {"measurement": "(Q) 1H NMR spectroscopy, proportion NMR silent, cation", "setting": "[2]; 5.6 mM, D2O 5.0% EtOH, 298 K", "value": "41.8% and 42%"}, {"measurement": "(Q) 1H NMR, proportion NMR silent, cation", "setting": "[2]; ~112 mM, DMSO-d6 1.0% DCM", "value": 0, "unit": "%"}, {"measurement": "ST at CAC", "setting": "[3]; H2O 5.0% EtOH, 298 K, listed as 8", "value": 52, "unit": "mN m^−1"}, {"measurement": "Surface tension at CAC", "setting": "[3]; listed as 8", "value": 51.98, "unit": "mN/m"}]}]}
